# In patent publication US7452887B2, “Quinoline- and isoquinoline-based compounds exhibiting ATP-utilizing enzyme inhibitory activity, and compositions, and uses thereof” (Amphora Discovery Corporation, priority 2004, dated 2008):
# Assays:
# Assay in all cases: HTS ATP-utilizing enzyme assay, off-chip mobility-shift (Caliper HTS 250)
# Details in all cases: test compound 10 μM, kinase listed = active (greater than six-sigma from the mean activity of inactive compounds)
# [1] = biological target: MAPKAPK2 (Homo sapiens, UniProt P49137); format: biochemical
# Summary of the method: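 Single-point screen of test compound at 10 μM against MAPKAPK2 with peptide substrate in HEPES pH 7.5 buffer (Triton X-100, BSA), 2.5 h at 20-22 °C. Substrate-to-phosphopeptide ratio was read by off-chip microfluidic mobility shift; EDTA and DMSO wells defined 100% and 0% controls, hits by six-sigma limits.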
# [2] = biological target: CHEK2 (Homo sapiens, UniProt O96017); format: biochemical
# Summary of the method: (§1)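 The ratio of peptide substrate to phosphorylated product, measured by microfluidic mobility shift, gave percent inhibition. Reactions contained enzyme, peptide substrate and compound at 10 μM in HEPES pH 7.5 buffer, ran 2.5 hrs at 20° C. to 22° C., and were quenched with EDTA.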
# [3] = biological target: CDK2/cyclin A (Homo sapiens, UniProt P24941); format: biochemical
# Summary of the method: as §1
# [4] = biological target: T1, PRAK (Homo sapiens, UniProt Q8IW41); format: biochemical
# T1 sequence (Q8IW41 1-473): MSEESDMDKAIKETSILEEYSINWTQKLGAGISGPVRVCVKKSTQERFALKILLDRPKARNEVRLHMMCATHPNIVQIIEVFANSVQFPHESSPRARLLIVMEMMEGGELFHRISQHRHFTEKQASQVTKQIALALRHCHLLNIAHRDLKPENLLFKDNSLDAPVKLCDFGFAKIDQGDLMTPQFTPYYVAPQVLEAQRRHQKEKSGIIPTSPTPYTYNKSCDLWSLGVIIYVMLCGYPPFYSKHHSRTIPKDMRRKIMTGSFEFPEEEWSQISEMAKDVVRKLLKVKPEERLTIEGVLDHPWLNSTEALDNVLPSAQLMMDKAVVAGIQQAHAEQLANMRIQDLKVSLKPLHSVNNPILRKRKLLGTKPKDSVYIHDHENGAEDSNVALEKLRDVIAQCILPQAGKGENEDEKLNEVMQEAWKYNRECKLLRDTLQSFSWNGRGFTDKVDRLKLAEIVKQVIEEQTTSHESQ
# Summary of the method: as §1
# [5] = biological target: C-TAK1 (Homo sapiens, UniProt P27448); format: biochemical
# Summary of the method: as §1
# [6] = biological target: CDK1/cyclin B (Homo sapiens, UniProt P06493); format: biochemical
# Summary of the method: as §1
# [7] = biological target: KIT (Homo sapiens, UniProt P10721); format: biochemical
# Summary of the method: as §1
# [8] = test system: CK2; format: biochemical, human
# Description: The following procedures describe the reagent and plate preparation for a HTS of an ATP-utilizing enzyme, such as a protein kinase, run in an off-chip mobility-shift assay format. The following provides an HTS protocol for running a protein kinase HTS screen on a Caliper HTS 250 microfluidics system. The following parameters are dependent on the protein kinase used and can be determined by one skilled in the art as part of a typical assay development process. For example, the peptide substrate used can be identified from the current literature, by screening a peptide library of potential protein kinase substrates, or by other applicable means accepted in the field.
# The following table provides typical screen assay parameters appropriate for a Caliper HTS 250 microfluidics system.
# The reagents and buffers listed in the following table are generally applicable for developing and running an HTS screen on a human protein kinase using the Caliper HTS 250 system.
# The following reagents were prepared using the previously described buffers.
# A 2× Master Buffer solution was prepared by combining 200 mL of 1 M HEPES, pH 7.5, 2 mL of 10% Triton X-100, 20 mL of 10% BSA, and 778 mL of H2O.
# A 2.5× Substrate Buffer solution was prepared by combining 177.408 mL of 2× Master Buffer, 0.887 mL of 1 mM peptide-X, and 176.521 mL of H2O.
# A 1.55× Termination Buffer solution was prepared by combining 762.05 mL of 2× Master Buffer, 95.1 mL of 0.5 M EDTA, and 666.94 mL of H2O. […]
# Assays to determine the kinase inhibitory activity of compounds of the present disclosure were performed using a Caliper HTS 250 microfluidics device, Greiner U-bottom assay plates, a Multidrop for transfer of reagents, and Biomek FX (AMNCBM03) software. […] The inhibition of the ATP-utilizing enzyme, such as a particular protein kinase, was determined by measuring the ratio of the peptide substrate to phosphorylated product for each well of the assay plate using the Caliper HTS 250 system. […]
# [9] = biological target: T2, NEK2 (Homo sapiens, UniProt P51955); format: biochemical
# T2 sequence (P51955 1-445): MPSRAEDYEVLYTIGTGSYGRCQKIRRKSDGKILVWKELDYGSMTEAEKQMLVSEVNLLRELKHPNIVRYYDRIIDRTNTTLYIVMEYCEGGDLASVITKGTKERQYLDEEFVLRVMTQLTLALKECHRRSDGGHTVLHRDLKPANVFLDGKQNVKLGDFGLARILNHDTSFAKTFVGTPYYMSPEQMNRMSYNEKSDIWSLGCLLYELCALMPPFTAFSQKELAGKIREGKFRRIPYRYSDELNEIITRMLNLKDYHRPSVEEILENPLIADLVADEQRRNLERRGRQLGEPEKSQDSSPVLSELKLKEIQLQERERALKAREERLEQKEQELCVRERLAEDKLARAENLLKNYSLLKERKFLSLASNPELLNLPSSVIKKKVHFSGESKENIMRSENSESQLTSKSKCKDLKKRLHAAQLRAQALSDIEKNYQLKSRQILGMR
# Summary of the method: as §1
# [10] = biological target: GSK3-α (Homo sapiens, UniProt P49840); format: biochemical
# Summary of the method: as §1
# [11] = biological target: MSK1 (Homo sapiens, UniProt O75582); format: biochemical
# Summary of the method: as §1
# [12] = biological target: SYK (Homo sapiens, UniProt P43405); format: biochemical
# Summary of the method: as §1
# [13] = biological target: SRC (Homo sapiens, UniProt P12931); format: biochemical
# Summary of the method: as §1
# [14] = biological target: ROCK2 (Homo sapiens, UniProt O75116); format: biochemical
# Summary of the method: as §1
# [15] = biological target: T3, DYRK2 (Homo sapiens, UniProt Q92630); format: biochemical
# T3 sequence (Q92630 1-601): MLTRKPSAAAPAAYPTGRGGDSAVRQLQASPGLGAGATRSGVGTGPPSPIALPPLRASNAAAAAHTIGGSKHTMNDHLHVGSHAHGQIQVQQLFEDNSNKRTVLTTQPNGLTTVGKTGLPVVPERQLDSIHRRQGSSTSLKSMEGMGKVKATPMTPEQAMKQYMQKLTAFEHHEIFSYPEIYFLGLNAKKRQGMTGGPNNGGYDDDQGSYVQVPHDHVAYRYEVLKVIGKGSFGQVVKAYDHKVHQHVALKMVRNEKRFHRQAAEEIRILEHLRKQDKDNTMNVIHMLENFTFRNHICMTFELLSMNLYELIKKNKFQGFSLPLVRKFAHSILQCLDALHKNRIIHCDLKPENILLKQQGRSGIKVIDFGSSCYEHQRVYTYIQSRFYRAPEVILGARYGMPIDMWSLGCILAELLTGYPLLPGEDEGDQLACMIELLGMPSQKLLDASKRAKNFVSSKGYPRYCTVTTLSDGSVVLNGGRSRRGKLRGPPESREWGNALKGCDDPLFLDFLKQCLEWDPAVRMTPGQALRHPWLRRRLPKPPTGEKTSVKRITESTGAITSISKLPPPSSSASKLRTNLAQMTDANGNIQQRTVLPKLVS
# Summary of the method: as §1
# [16] = biological target: GSK-3-β (Homo sapiens, UniProt P49841); format: biochemical
# Summary of the method: as §1
# C-TAK1, sequence (P27448 whole entry): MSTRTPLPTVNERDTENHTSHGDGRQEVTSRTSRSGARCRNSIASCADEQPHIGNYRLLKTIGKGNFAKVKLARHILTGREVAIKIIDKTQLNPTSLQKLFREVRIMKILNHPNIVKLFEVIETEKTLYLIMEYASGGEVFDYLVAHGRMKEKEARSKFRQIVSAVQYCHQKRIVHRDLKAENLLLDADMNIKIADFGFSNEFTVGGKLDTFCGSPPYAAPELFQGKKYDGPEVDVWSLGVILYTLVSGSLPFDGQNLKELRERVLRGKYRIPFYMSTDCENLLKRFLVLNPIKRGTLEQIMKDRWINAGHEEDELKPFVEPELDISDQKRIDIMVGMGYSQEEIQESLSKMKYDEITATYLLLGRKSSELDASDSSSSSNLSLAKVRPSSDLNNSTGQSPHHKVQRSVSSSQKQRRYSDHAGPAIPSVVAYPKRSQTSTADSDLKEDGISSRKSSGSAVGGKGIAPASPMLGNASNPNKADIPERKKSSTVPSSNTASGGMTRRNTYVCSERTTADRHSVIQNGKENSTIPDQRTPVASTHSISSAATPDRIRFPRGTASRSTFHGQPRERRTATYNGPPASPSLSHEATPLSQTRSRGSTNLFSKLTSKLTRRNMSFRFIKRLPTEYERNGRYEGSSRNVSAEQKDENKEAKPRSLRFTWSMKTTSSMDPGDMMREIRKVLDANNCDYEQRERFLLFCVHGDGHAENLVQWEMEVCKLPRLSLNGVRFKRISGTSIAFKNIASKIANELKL
# MAPKAPK2, sequence (P49137 whole entry): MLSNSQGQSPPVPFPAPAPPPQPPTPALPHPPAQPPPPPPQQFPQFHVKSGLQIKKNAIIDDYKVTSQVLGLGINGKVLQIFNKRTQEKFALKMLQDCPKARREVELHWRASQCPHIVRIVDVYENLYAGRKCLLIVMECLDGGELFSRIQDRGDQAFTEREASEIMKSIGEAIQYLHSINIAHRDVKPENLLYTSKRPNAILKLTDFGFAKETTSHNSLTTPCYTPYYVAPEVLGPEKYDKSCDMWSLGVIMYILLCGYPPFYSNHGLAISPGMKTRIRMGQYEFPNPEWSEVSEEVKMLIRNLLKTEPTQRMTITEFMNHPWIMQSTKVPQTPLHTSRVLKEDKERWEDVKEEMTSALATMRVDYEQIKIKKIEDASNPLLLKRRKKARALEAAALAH
# CHEK2, sequence (O96017 whole entry): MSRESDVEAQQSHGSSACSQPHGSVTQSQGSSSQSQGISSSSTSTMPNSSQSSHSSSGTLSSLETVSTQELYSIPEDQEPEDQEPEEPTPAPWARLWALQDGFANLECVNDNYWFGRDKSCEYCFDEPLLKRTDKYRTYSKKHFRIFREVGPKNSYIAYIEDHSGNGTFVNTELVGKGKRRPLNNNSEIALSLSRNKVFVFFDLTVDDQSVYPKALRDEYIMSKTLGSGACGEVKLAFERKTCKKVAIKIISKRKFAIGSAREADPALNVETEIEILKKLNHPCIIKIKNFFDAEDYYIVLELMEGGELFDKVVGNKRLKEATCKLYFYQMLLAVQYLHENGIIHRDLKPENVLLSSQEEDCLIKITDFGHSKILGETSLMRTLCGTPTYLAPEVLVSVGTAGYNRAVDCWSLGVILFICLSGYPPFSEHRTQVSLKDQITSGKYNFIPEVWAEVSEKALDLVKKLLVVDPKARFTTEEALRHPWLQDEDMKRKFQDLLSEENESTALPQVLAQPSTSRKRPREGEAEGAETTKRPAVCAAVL
# GSK3-α, sequence (P49840 whole entry): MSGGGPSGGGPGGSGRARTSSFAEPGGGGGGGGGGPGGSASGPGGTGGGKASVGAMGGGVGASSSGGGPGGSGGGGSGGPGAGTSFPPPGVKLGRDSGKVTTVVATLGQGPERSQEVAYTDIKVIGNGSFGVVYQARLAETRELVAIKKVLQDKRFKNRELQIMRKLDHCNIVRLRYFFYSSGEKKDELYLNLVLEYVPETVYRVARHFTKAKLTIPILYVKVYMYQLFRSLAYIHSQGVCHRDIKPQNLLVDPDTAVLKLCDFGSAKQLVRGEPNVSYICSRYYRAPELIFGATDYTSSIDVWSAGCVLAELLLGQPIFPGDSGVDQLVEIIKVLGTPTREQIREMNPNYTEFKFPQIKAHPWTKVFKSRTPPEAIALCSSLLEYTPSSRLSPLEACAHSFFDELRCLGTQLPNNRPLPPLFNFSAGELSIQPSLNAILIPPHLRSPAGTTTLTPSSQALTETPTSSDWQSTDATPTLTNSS
# MSK1, sequence (O75582 whole entry): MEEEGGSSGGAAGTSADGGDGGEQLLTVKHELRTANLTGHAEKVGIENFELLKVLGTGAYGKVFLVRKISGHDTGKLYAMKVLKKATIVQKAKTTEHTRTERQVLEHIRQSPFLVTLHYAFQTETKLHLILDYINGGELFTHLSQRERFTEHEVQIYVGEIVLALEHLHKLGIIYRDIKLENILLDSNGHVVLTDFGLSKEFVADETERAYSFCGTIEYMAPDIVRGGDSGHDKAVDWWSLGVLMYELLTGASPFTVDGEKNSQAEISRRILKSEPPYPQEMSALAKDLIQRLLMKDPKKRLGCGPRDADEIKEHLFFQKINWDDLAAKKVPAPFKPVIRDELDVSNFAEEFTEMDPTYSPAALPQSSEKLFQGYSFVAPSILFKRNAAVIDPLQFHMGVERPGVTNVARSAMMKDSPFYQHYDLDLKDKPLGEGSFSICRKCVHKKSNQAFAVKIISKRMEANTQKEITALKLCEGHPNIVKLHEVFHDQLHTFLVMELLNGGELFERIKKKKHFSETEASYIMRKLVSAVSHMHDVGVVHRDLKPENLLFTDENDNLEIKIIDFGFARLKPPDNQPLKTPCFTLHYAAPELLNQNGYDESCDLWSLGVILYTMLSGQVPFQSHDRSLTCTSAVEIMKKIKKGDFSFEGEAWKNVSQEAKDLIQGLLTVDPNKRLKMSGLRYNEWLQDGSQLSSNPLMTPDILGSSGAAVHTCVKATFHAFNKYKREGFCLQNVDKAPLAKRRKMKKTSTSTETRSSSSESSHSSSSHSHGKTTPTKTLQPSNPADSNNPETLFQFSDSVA
# SRC, sequence (P12931 whole entry): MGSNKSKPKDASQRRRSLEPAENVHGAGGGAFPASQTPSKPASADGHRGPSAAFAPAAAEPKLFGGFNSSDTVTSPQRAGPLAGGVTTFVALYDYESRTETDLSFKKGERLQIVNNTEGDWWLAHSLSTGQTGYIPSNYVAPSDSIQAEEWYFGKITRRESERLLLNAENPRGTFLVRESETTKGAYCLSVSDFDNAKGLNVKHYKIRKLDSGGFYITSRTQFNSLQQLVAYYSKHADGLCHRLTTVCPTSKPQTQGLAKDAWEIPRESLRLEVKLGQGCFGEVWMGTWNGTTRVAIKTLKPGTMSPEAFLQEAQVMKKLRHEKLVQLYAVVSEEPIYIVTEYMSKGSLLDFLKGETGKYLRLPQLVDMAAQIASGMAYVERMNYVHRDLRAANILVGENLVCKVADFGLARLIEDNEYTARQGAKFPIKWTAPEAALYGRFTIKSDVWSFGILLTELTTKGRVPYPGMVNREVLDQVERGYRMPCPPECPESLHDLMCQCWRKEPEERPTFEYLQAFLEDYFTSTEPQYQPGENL
# ROCK2, sequence (O75116 whole entry): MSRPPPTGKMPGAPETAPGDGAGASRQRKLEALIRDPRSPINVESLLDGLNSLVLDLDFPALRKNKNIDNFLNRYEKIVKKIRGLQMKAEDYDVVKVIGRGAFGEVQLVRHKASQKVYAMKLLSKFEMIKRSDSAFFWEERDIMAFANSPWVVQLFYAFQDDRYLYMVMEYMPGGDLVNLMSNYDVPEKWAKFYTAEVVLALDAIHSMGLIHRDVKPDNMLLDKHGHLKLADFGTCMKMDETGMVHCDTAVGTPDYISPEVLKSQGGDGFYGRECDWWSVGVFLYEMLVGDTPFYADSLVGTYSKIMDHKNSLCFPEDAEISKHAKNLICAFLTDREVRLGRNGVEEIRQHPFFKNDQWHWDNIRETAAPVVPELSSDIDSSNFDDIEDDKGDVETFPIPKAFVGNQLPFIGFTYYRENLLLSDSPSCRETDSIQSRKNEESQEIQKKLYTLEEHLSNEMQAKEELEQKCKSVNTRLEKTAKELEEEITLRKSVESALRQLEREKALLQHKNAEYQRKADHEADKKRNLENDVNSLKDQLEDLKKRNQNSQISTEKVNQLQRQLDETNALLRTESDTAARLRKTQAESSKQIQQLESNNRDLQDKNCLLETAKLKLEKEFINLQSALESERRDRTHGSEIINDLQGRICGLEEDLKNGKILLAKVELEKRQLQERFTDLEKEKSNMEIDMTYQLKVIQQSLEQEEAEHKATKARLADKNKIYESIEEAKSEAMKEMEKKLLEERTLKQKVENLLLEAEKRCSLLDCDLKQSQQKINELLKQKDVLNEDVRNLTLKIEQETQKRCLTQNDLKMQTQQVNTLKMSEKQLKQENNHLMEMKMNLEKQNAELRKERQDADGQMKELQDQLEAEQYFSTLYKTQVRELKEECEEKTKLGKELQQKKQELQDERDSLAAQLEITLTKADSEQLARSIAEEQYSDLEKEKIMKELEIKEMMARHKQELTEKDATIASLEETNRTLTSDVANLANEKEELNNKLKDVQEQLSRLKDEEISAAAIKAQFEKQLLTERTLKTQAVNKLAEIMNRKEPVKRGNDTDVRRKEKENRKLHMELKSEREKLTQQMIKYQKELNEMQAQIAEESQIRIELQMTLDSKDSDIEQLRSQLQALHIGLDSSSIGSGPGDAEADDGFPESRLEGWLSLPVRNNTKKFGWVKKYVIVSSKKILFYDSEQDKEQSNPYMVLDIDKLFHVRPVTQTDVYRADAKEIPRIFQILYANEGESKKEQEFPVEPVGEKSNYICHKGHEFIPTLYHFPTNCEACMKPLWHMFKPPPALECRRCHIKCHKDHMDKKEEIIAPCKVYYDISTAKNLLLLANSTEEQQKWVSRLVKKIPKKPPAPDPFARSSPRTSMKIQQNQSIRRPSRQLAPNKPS
Compound,Activity [1],Activity [2],Activity [3],Activity [4],Activity [5],Activity [9],further results
CN1CCN(c2ccc(Nc3ccnc4ccc(-c5cccc(OCc6ccccc6)c5)cc34)cc2)CC1 [6-(3-(benzyloxy)phenyl)-N-(4-(4-methylpiperazin-1-yl)phenyl)quinolin-4-amine],MAPKAPK2,CHEK2,CDK2/cyclin A,PRAK,C-TAK1,–,–
CNC1CCN(c2ccc(Nc3ccnc4ccc(-c5ccc(C#N)cc5)cc34)cc2)C1 (centres unmarked) [4-(4-(4-(3-(methylamino)pyrrolidin-1-yl)phenylamino)quinolin-6-yl)benzonitrile],–,–,–,PRAK,–,–,Activity [6]: CDK1/cyclin B; Activity [7]: KIT
CN1CCN(c2ccc(Nc3ccnc4ccc(-c5ccccc5C(F)(F)F)cc34)cc2)CC1 [N-(4-(4-methylpiperazin-1-yl)phenyl)-6-(2-(trifluoromethyl)phenyl)quinolin-4-amine],MAPKAPK2,–,–,PRAK,–,NEK2,Activity [8]: CK2
"CN1CCN(c2ccc(Nc3ccnc4ccc(-c5ccc(Cl)c(Cl)c5)cc34)cc2)CC1 [6-(3,4-dichlorophenyl)-N-(4-(4-methylpiperazin-1-yl)phenyl)quinolin-4-amine]",MAPKAPK2,CHEK2,CDK2/cyclin A,PRAK,C-TAK1,NEK2,–
CN1CCN(c2ccc(Nc3ccnc4ccc(-c5cccs5)cc34)cc2)CC1 [N-(4-(4-methylpiperazin-1-yl)phenyl)-6-(thiophen-2-yl)quinolin-4-amine],MAPKAPK2,CHEK2,CDK2/cyclin A,PRAK,–,–,Activity [10]: GSK3-α
CN1CCN(c2ccc(Nc3ccnc4ccc(-c5ccc(OCc6ccccc6)c(F)c5)cc34)cc2)CC1 [6-(4-(benzyloxy)-3-fluorophenyl)-N-(4-(4-methylpiperazin-1-yl)phenyl)quinolin-4-amine],MAPKAPK2,–,–,–,C-TAK1,–,Activity [12]: SYK; Activity [13]: SRC
CN1CCN(c2ccc(Nc3ccnc4ccc(-c5ccoc5)cc34)cc2)CC1 [6-(furan-3-yl)-N-(4-(4-methylpiperazin-1-yl)phenyl)quinolin-4-amine],MAPKAPK2,–,–,–,–,–,Activity [15]: DYRK2; Activity [16]: GSK-3-β; Activity [10]: GSK3-α

# Now from value to compound, other results behind:
Activity [1],Activity [2],Activity [3],Activity [4],Activity [5],Activity [9],Compound,further results
MAPKAPK2,–,–,PRAK,–,–,CN1CCN(c2ccc(Nc3ccnc4ccc(-c5cccc(C(=O)O)c5)cc34)cc2)CC1 [3-(4-(4-(4-methylpiperazin-1-yl)phenylamino)quinolin-6-yl)benzoic acid],Activity [8]: CK2
MAPKAPK2,–,–,PRAK,C-TAK1,NEK2,CN1CCN(c2ccc(Nc3ccnc4ccc(-c5ccc(F)c(Cl)c5)cc34)cc2)CC1 [6-(3-chloro-4-fluorophenyl)-N-(4-(4-methylpiperazin-1-yl)phenyl)quinolin-4-amine],Activity [11]: MSK1
MAPKAPK2,–,–,PRAK,–,NEK2,CN1CCN(c2ccc(Nc3ccnc4ccc(-c5ccc(C(N)=O)cc5)cc34)cc2)CC1 [4-(4-(4-(4-methylpiperazin-1-yl)phenylamino)quinolin-6-yl)benzamide],Activity [14]: ROCK2; Activity [15]: DYRK2
